# Data published in US20090178158A1, “RESISTANCE AGAINST PARASITIC WEEDS” (Plant Research International B.V., priority 2005, published 2009).
# Several values for one entry are separate records, joined by “and”; a condition that tells them apart may be missing. Equal entries are not always repeated. Entries after “also recorded” stand apart in the source; their conditions may differ.
# Experiments:
# Striga hermonthica seeds [1] = assay: Germination bioassay: S. hermonthica seeds with root exudates of treated host seedlings (maize, cowpea, sorghum); type: in vivo; conditions: for maize root exudate-induced S. hermonthica germination: maize W22 grown 5 days with 100 μM fosmidomycin or 10 μM mevastatin, control 42±2%
# Orobanche crenata seeds = type: in vivo; conditions: 10 μM fluridone, versus control, FIG. 3F
# [2] = tested on: carotenoid composition of shoots and roots of maize seedlings; assay: Carotenoid analysis (HPLC) of shoots and roots of treated maize seedlings; type: in vivo
# Striga hermonthica seeds [3] = type: in vivo
# maize seedlings = assay: Phenotype of inhibitor-treated maize seedlings; conditions: 10 μM mevastatin, 100 μM fosmidomycin, 25 μM fluridone, 200 μM amitrole (21° C.), 0.1-1 mM naproxen, 1 mM sodium tungstate, 0.02-0.2 mM abscisic acid
# [4] = Roots of 10-day old maize seedlings, 10 μM fluridone, 1 mM naproxen, 0.1 mM sodium tungstate, 0.02 mM abscisic acid, n.d. = below detection limit
# [5] = Shoots of 10-day old maize seedlings, 10 μM fluridone, 1 mM naproxen, 0.1 mM sodium tungstate, 0.02 mM abscisic acid, n.d. = below detection limit
# [6] = maize shoots, versus control (Table 1)
compound,measurement,setting,value
CC[C@H](C)C(=O)O[C@H]1CCC=C2C=C[C@H](C)[C@H](CC[C@@H]3C[C@@H](O)CC(=O)O3)[C@H]21 [mevastatin],maize root exudate-induced S. hermonthica germination,Striga hermonthica seeds [1]; FIG. 3A,33±3%
fluridone,germination of S. hermonthica induced by root exudates of treated maize,"Striga hermonthica seeds [1]; 10 μM fluridone, dim light, FIG. 3B",negligible
same,germination of S. hermonthica induced by root exudates of treated maize,"Striga hermonthica seeds [1]; 10 μM fluridone, normal light, control 13±1%, FIG. 3B",virtually no germination
same,germination of S. hermonthica induced by fluridone-treated cowpea root exudates with GR24,"Striga hermonthica seeds [1]; 10 μM fluridone-treated cowpea exudate plus 0.01 mg.L^−1 GR24, FIG. 3E",53±3%
same,germination of S. hermonthica seeds induced by cowpea root exudates,"Striga hermonthica seeds [1]; cowpea watered with 10 μM fluridone for 5 days, non-treated 49±2%, FIG. 3E",11±3%
same,germination induced by root exudates lower than for control maize,"Striga hermonthica seeds [1]; maize W22, 25 μM fluridone, 5 days, FIG. 3A",about 80%
same,sorghum root exudate induced S. hermonthica germination,"Striga hermonthica seeds [1]; sorghum, 4 μM fluridone, FIG. 3G",completely blocked
same,germination of O. crenata seeds with fluridone-treated cowpea root exudate,Orobanche crenata seeds,lower than that induced by the control; also recorded: decreased this germination by about the same percentage as for S. hermonthica
same,phytoene in treated roots,[2]; fluridone treated maize roots,phytoene accumulated
same,phytoene in treated shoots,[2]; shoot of fluridone treated maize plants,phytoene accumulated
same,effect on the attachment phase of Striga,Striga hermonthica seeds [3]; control experiments with GR24 inducing full germination (data not shown),not affecting the attachment phase
same,number of germinated/attached seeds/tubercles of Striga,"Striga hermonthica seeds [3]; rice, fluridone sprayed to the leaves on 3 consecutive days, even at 0.001 and 0.01 μM, FIG. 7B","strong, significant reduction"
same,number of germinated/attached Striga seeds,"Striga hermonthica seeds [3]; rice, irrigation once with 100 mL of 0.1 μM fluridone, scored after 6 weeks, FIG. 7A",significantly reduced
"CC1=CC(=O)CC(C)(C)C1(O)/C=C/C(C)=C\C(=O)O (racemic) [abscisic acid, (±)-abscisic acid]",germination of S. hermonthica induced by root exudates of treated maize,"Striga hermonthica seeds [1]; 0.02 or 0.2 mM abscisic acid, without/with 10 μM fluridone, FIG. 3D",very low germination; also recorded: strongly reduced
same,"violaxanthin, carotenoid content",[2]; [4],0.07 μg · g^−1 fwt
same,"β-carotene, carotenoid content",[2]; [4],0.01 μg · g^−1 fwt
same,"lutein, carotenoid content",[2]; [5],73.01 μg · g^−1 fwt
same,"neoxanthin, carotenoid content",[2]; [5],115.29 μg · g^−1 fwt
same,"violaxanthin, carotenoid content",[2]; [5],50.84 μg · g^−1 fwt
same,"β-carotene, carotenoid content",[2]; [5],47.35 μg · g^−1 fwt
same,β-carotene concentration lower than in control roots,"[2]; abscisic acid treated maize roots (0.02 mM, Table 1)",50% and ~65%
same,"carotenoid accumulation in shoots (β-carotene, violaxanthin, neoxanthin, lutein)",[2]; [6],decreased accumulation
same,morphology / appearance of treated seedlings,maize seedlings,slightly thicker and more brittle
[Na+].[Na+].[O]=[W](=[O])([O-])[O-] [sodium tungstate],effect on root exudate induced S. hermonthica germination,"Striga hermonthica seeds [1]; maize Dent, 0.1 mM and 1 mM sodium tungstate, FIG. 3D",did not affect germination; also recorded: did not have an effect
same,"violaxanthin, carotenoid content",[2]; [4],0.22 μg · g^−1 fwt
same,"β-carotene, carotenoid content",[2]; [4],0.03 μg · g^−1 fwt
same,"lutein, carotenoid content",[2]; [5],83.94 μg · g^−1 fwt
same,"neoxanthin, carotenoid content",[2]; [5],147.58 μg · g^−1 fwt
same,"violaxanthin, carotenoid content",[2]; [5],72.19 μg · g^−1 fwt
same,"β-carotene, carotenoid content",[2]; [5],64.29 μg · g^−1 fwt
same,concentration of violaxanthin higher than in control roots,"[2]; maize roots, 1 mM naproxen, 0.1 mM sodium tungstate (Table 1)",2 fold
same,"carotenoid accumulation in shoots (β-carotene, violaxanthin, neoxanthin, lutein)",[2]; [6],did not affect carotenoid accumulation
"COc1ccc2cc([C@H](C)C(=O)[O-])ccc2c1.[Na+] [naproxen, (S)-6-methoxy-α-methyl-2-naphthaleneacetic acid sodium salt]",germination of S. hermonthica seeds,"Striga hermonthica seeds [1]; in vivo, sodium salt",20±1% and 15±2%
same,"carotenoid accumulation in shoots (β-carotene, violaxanthin, neoxanthin, lutein)",[2]; in vivo,decreased accumulation
same,concentration of violaxanthin higher than in control roots,[2]; in vivo,about 3 fold
same,concentration of β-carotene higher than in control roots,[2]; in vivo,2 fold
same,"lutein, carotenoid content",[2]; in vivo,68.58 μg · g^−1 fwt
same,"neoxanthin, carotenoid content",[2]; in vivo,111.81 μg · g^−1 fwt
"Nc1nc[nH]n1 [amitrole, 3-amino-1,2,4-triazole]",germination of S. hermonthica induced by root exudates of treated maize,"Striga hermonthica seeds [1]; maize Dent, 200 μM amitrole, grown at 21° C., versus control, FIG. 3C",lower germination
same,morphology / appearance of treated seedlings,maize seedlings,yellow-green phenotype
CC1=C[C@H](O/C=C2/C(=O)O[C@@H]3c4ccccc4C[C@H]23)OC1=O [GR24],germination of S. hermonthica induced by GR24 alone,"Striga hermonthica seeds [1]; suboptimal concentration of GR24 (0.01 mg.L^−1, FIG. 3E)",48±1%
O=CN(O)CCCP(=O)(O)O [fosmidomycin],maize root exudate-induced S. hermonthica germination,Striga hermonthica seeds [1]; FIG. 3A,37±2%
same,morphology / appearance of treated seedlings,maize seedlings,slightly pale-yellow leaves
